Data: the supplement of paper PMC10307832

Assays:
Test in all cases: relative viability (nuclei count vs DMSO), 5 days (fraction); higher = more cells survive
SW 1573 = tested on: SW 1573
Method in brief: (§1)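 Lung cancer cell lines, seeded in 1536-well plates, were treated the following day by pin tool with a single drug or with five library-drug doses (not always all listed) in √10 steps on top of a fixed anchor-drug dose. Cells were fixed and nuclei stained in one step after 5 days, and nuclei were counted. Relative viability is the nuclei count for treated wells divided by that for vehicle wells, reported as medians of duplicate plates.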

NCI-H647 = tested on: NCI-H647
Method in brief: as §1

RERF-LC-KJ = tested on: RERF-LC-KJ
Method in brief: as §1

NCI-H1792 = tested on: NCI-H1792
Method in brief: as §1

SK-LU-1 = tested on: SK-LU-1
Method in brief: as §1

NCI-H1975 = tested on: NCI-H1975
Method in brief: as §1

NCI-H2126 = tested on: NCI-H2126
Method in brief: as §1

NCI-H1755 = tested on: NCI-H1755
Method in brief: as §1

PC-3 [JPC-3] = tested on: PC-3 [JPC-3]
Method in brief: as §1

NCI-H1734 = tested on: NCI-H1734
Method in brief: as §1

HOP-62 = tested on: HOP-62
Method in brief: as §1

NCI-H2228 = tested on: NCI-H2228
Method in brief: as §1

NCI-H460 = tested on: NCI-H460
Method in brief: as §1

LC-2-ad = tested on: LC-2-ad
Method in brief: as §1

LOU-NH91 = tested on: LOU-NH91
Method in brief: as §1

NCI-H2342 = tested on: NCI-H2342
Method in brief: as §1

NCI-H1915 = tested on: NCI-H1915
Method in brief: as §1

NCI-H358 = tested on: NCI-H358
Method in brief: as §1

LXF-289 = tested on: LXF-289
Method in brief: as §1

HCC-15 = tested on: HCC-15
Method in brief: as §1

NCI-H2347 = tested on: NCI-H2347
Method in brief: as §1

A-427 = tested on: A-427
Method in brief: as §1

HCC-78 = tested on: HCC-78
Method in brief: as §1

Work on `O=C(O)c1ccc(-c2c[nH]c3ncc(-c4ccccc4)cc23)cc1C1CCCC1` + CC(=O)Nc1cccc(-n2c(=O)n(C3CC3)c(=O)c3c(Nc4ccc(I)cc4F)n(C)c(=O)c(C)c32)c1 [Trametinib] (partner 0.02 µM) yielded a relative viability (SW 1573; first compound 0.04 µM) of 0.476, a relative viability (SW 1573; first compound 0.1265 µM) of 0.584 and a relative viability (SW 1573; first compound 0.4 µM) of 0.439. It also gave a relative viability (SW 1573; first compound 1.265 µM) of 0.365, a relative viability (NCI-H647; first compound 0.04 µM) of 0.432 and a relative viability (NCI-H647; first compound 0.1265 µM) of 0.477. For the same molecule, the relative viability (NCI-H647; first compound 0.4 µM) was 0.478, the relative viability (NCI-H647; first compound 1.265 µM) was 0.389 and the relative viability (RERF-LC-KJ; first compound 0.04 µM) was 0.916. For the same molecule, the relative viability (RERF-LC-KJ; first compound 0.1265 µM) was 0.908, the relative viability (RERF-LC-KJ; first compound 0.4 µM) was 0.814 and the relative viability (RERF-LC-KJ; first compound 1.265 µM) was 0.657. For the same molecule, the relative viability (NCI-H1792; first compound 0.04 µM) was 0.375, the relative viability (NCI-H1792; first compound 0.1265 µM) was 0.454 and the relative viability (NCI-H1792; first compound 0.4 µM) was 0.407. For the same molecule, the relative viability (NCI-H1792; first compound 1.265 µM) was 0.392, the relative viability (SK-LU-1; first compound 0.04 µM) was 0.522 and the relative viability (SK-LU-1; first compound 0.1265 µM) was 0.591. It also gave a relative viability (SK-LU-1; first compound 0.4 µM) of 0.513, a relative viability (SK-LU-1; first compound 1.265 µM) of 0.37 and a relative viability (NCI-H1975; first compound 0.04 µM) of 0.319. The relative viability (NCI-H1975; first compound 0.1265 µM) was 0.435, the relative viability (NCI-H1975; first compound 0.4 µM) was 0.395 and the relative viability (NCI-H1975; first compound 1.265 µM) was 0.32. The relative viability (NCI-H2126; first compound 0.04 µM) was 0.597, the relative viability (NCI-H2126; first compound 0.1265 µM) was 0.585 and the relative viability (NCI-H2126; first compound 0.4 µM) was 0.562. For the same molecule, the relative viability (NCI-H2126; first compound 1.265 µM) was 0.55, the relative viability (NCI-H1755; first compound 0.04 µM) was 0.778 and the relative viability (NCI-H1755; first compound 0.1265 µM) was 0.777. It also gave a relative viability (NCI-H1755; first compound 0.4 µM) of 0.799, a relative viability (NCI-H1755; first compound 1.265 µM) of 0.754 and a relative viability (PC-3 [JPC-3]; first compound 0.04 µM) of 0.656. For the same molecule, the relative viability (PC-3 [JPC-3]; first compound 0.1265 µM) was 0.756, the relative viability (PC-3 [JPC-3]; first compound 0.4 µM) was 0.752 and the relative viability (PC-3 [JPC-3]; first compound 1.265 µM) was 0.647. The relative viability (NCI-H1734; first compound 0.04 µM) was 0.618, the relative viability (NCI-H1734; first compound 0.1265 µM) was 0.706 and the relative viability (NCI-H1734; first compound 0.4 µM) was 0.614. For the same molecule, the relative viability (NCI-H1734; first compound 1.265 µM) was 0.585, the relative viability (HOP-62; first compound 0.04 µM) was 0.37 and the relative viability (HOP-62; first compound 0.1265 µM) was 0.407. For the same molecule, the relative viability (HOP-62; first compound 0.4 µM) was 0.412, the relative viability (HOP-62; first compound 1.265 µM) was 0.376 and the relative viability (NCI-H2228; first compound 0.04 µM) was 0.548. For the same molecule, the relative viability (NCI-H2228; first compound 0.1265 µM) was 0.581, the relative viability (NCI-H2228; first compound 0.4 µM) was 0.633 and the relative viability (NCI-H2228; first compound 1.265 µM) was 0.305. It also gave a relative viability (NCI-H460; first compound 0.04 µM) of 0.13, a relative viability (NCI-H460; first compound 0.1265 µM) of 0.189 and a relative viability (NCI-H460; first compound 0.4 µM) of 0.238. It also gave a relative viability (NCI-H460; first compound 1.265 µM) of 0.23, a relative viability (LC-2-ad; first compound 0.04 µM) of 0.876 and a relative viability (LC-2-ad; first compound 0.1265 µM) of 0.921. For the same molecule, the relative viability (LC-2-ad; first compound 0.4 µM) was 0.897, the relative viability (LC-2-ad; first compound 1.265 µM) was 0.769 and the relative viability (LOU-NH91; first compound 0.04 µM) was 0.774. For the same molecule, the relative viability (LOU-NH91; first compound 0.1265 µM) was 0.848, the relative viability (LOU-NH91; first compound 0.4 µM) was 0.773 and the relative viability (LOU-NH91; first compound 1.265 µM) was 0.681. It also gave a relative viability (NCI-H2342; first compound 0.04 µM) of 0.768, a relative viability (NCI-H2342; first compound 0.1265 µM) of 0.839 and a relative viability (NCI-H2342; first compound 0.4 µM) of 0.906. The relative viability (NCI-H2342; first compound 1.265 µM) was 0.711, the relative viability (NCI-H1915; first compound 0.04 µM) was 0.293 and the relative viability (NCI-H1915; first compound 0.1265 µM) was 0.313. The relative viability (NCI-H1915; first compound 0.4 µM) was 0.287, the relative viability (NCI-H1915; first compound 1.265 µM) was 0.289 and the relative viability (NCI-H358; first compound 0.04 µM) was 0.146. The relative viability (NCI-H358; first compound 0.1265 µM) was 0.129, the relative viability (NCI-H358; first compound 0.4 µM) was 0.138 and the relative viability (NCI-H358; first compound 1.265 µM) was 0.0857. For the same molecule, the relative viability (LXF-289; first compound 0.04 µM) was 0.625, the relative viability (LXF-289; first compound 0.1265 µM) was 0.685 and the relative viability (LXF-289; first compound 0.4 µM) was 0.666. It also gave a relative viability (LXF-289; first compound 1.265 µM) of 0.535, a relative viability (HCC-15; first compound 0.04 µM) of 0.396 and a relative viability (HCC-15; first compound 0.1265 µM) of 0.395. The relative viability (HCC-15; first compound 0.4 µM) was 0.409, the relative viability (HCC-15; first compound 1.265 µM) was 0.351 and the relative viability (NCI-H2347; first compound 0.04 µM) was 0.267. The relative viability (NCI-H2347; first compound 0.1265 µM) was 0.286, the relative viability (NCI-H2347; first compound 0.4 µM) was 0.311 and the relative viability (NCI-H2347; first compound 1.265 µM) was 0.26. It also gave a relative viability (A-427; first compound 0.04 µM) of 0.759, a relative viability (A-427; first compound 0.1265 µM) of 0.78 and a relative viability (A-427; first compound 0.4 µM) of 0.741. The relative viability (A-427; first compound 1.265 µM) was 0.584, the relative viability (HCC-78; first compound 0.1265 µM) was 0.937 and the relative viability (HCC-78; first compound 0.4 µM) was 0.945. It also gave a relative viability (HCC-78; first compound 1.265 µM) of 0.829.
